Data from US7662767B2, “Polynucleotide intercalator interceptors and inhibitors” (Materials Evolution and Development USA, Inc., priority 2000, dated 2010).

How the values were obtained:
[1] = test system: chicken erythrocyte nuclear chromatin; assay: Blocking of acridine orange intercalation into chicken erythrocyte nuclear chromatin, fluorescence microscopy; parameters: key: 0: no blocking effect; 1: slight blocking; 2: moderate blocking; 3: almost total blocking (very slight green fluorescence detectable); 4: complete blockage (no green fluorescence detectable); conditions: 10 μM AO
Procedure: Microscope slides coated with chicken erythrocyte were stained with 10 μM AO at three separate areas on the microscope slide as described above. Slides were exposed to […] different xanthies at four different molar ratios for three different periods of time. The xanthines, theophylline, caffeine, 1,3,7,9-tetramethyl uric acid, and aminophylline, were prepared with 10 μM AO at molar ratios of 50:1, 500:1, 2500:1, 5000:1 xanthine to AO in distilled water. Microscope slides coated with chicken erythrocytes were exposed to a mixture of xanthine/AO at each molar ratio for periods of 10 min, 1 min, and 10 seconds under static (non-agitated) conditions. […] Following exposure to the xanthine/AO or to the DNA/AO solutions, the slides were rinsed in distilled water, allowed to dry at room temperature, examined by fluorescence microscopy, and the color of the nuclei recorded. Results were recorded as follows: 0=no blocking effect; 1=slight blocking; 2=moderate blocking; 3=almost total blocking (very slight green fluorescence detectable); 4=complete blockage (no green fluorescence detectable).
In the implementation shown in Table 4-2, the relative intensity of the green fluorescent color ([…]) utilizing a red blocking filter (≧600 nm) was used as the indicator of the intensity of staining. The molar ratio is expressed as the ratio of xanthine concentration to 10 μM AO. Results were recorded as follows: 0=no blocking effect; 1=slight blocking; 2=moderate blocking; 3=almost total blocking (very slight green fluorescence detectable); 4=complete blockage (no green fluorescence detectable). *Kassoc values for the xanthines are taken from Table 2-1 and the Kassoc values for DNA were taken from Table 3-2.

[2] = test system: chicken erythrocyte nuclear chromatin; assay: Removal of acridine orange from stained chicken erythrocyte nuclear chromatin by xanthine rinse, fluorescence microscopy; conditions: for Nuclear color, Stain: before xanthine rinse; for Nuclear color, Re-stain: re-stained after xanthine rinse; for Nuclear color, After Rinse: xanthine rinse 50 mM, 1 hour, static
Procedure: Experiments were conducted to determine whether xanthines with known binding affinities to AO could compete with nuclear DNA for binding to AO and, therefore, be able to remove AO from its intercalation position within nuclear chromatin. Fluorescence microscopy was used to observe the fluorescent color produced by the AO-DNA complex following the staining of chicken erythrocyte nuclear chromatin with AO at both 5 μM and 5 mM.
Microscope slides smeared with chicken erythrocytes were stained with either 5 μM or 5 mM AO for a period of 30 minutes followed by three 10 second rinses in distilled water before drying at room temperature. Slides were then examined by fluorescence microscopy using a, Zeiss Model 63 Microscope with a xenon source fluorescent emitter. In some instances, a blocking filter was used to filter out fluorescence emission in the red and higher wavelengths. Photomicrographs were taken with Kodak Gold 35 mm ASA 1600 speed film, developed and color prints made. Comparative photomicrographs were taken at the same magnification and at the same exposure time. Selected photomicrographs were digitally scanned (Hewitt-Packard, Model 4L Scanner, Palo Alto, Calif.) and stored on 100 MB ZIP cartridges.
Slides were again examined by fluorescence microscopy and fluorescence color of the nuclei recorded. Slides were again stained with 5 mM AO then re-examined by fluorescence microscopy and fluorescence color of the nuclei recorded.
In the example shown in Table 4-3, the chicken erythrocytes were smeared and dried on a microscope slide prior to exposure to the AO solution for 30 minutes followed by water rinses to remove excess AO. Following drying, each slide was observed under fluorescence microscopy then placed in one of the xanthine solutions (50 ml volume) for 1 hour under static conditions, rinsed with water, then dried prior to being observed by fluorescence microscopy without a red blocking filter. Finally, each slide was restained following the initial staining procedures and again observed by fluorescence microscopy. Kassoc values are taken from Table 2-1 and are expressed in M^−1.

[3] = Xanthine/AO molar ratio 5000:1, exposure 10 min
[4] = molar ratio 50:1, exposure 10 sec
[5] = molar ratio 50:1, exposure 1 min
[6] = molar ratio 50:1, exposure 10 min
[7] = molar ratio 500:1, exposure 10 sec
[8] = molar ratio 500:1, exposure 1 min
[9] = molar ratio 500:1, exposure 10 min
[10] = molar ratio 2500:1, exposure 10 sec
[11] = molar ratio 2500:1, exposure 1 min
[12] = molar ratio 2500:1, exposure 10 min
[13] = molar ratio 5000:1, exposure 10 sec
[14] = molar ratio 5000:1, exposure 1 min

Compound | blocking of AO intercalation [1, 3] | blocking of AO intercalation [1, 4] | blocking of AO intercalation [1, 5] | blocking of AO intercalation [1, 6] | blocking of AO intercalation [1, 7] | blocking of AO intercalation [1, 8] | blocking of AO intercalation [1, 9] | blocking of AO intercalation [1, 10] | blocking of AO intercalation [1, 11] | blocking of AO intercalation [1, 12] | blocking of AO intercalation [1, 13] | blocking of AO intercalation [1, 14] | effect of xanthine rinse on fluorescence of AO stained nuclear chromatin ([2]; 50 mM xanthine rinse) | Nuclear color, Stain ([2]; AO [5 μM] 30 minutes) | Nuclear color, Re-stain ([2]; AO [5 μM]) | Nuclear color, After Rinse ([2]; AO [5 μM]) | Nuclear color, Stain ([2]; AO [5 mM] 30 minutes) | Nuclear color, Re-stain ([2]; AO [5 mM]) | Nuclear color, After Rinse ([2]; AO [5 mM])
Cn1c(=O)c2[nH]cnc2n(C)c1=O.NCCN [1,3-dimethyl xanthine ethylenediamine] | 3 | 0 | 0 | 0 | 2 | 2 | 0 | 3 | 2 | 1 | 3 | 3 | removal of most, if not all, green and red color | Green | Green | None | Red | Red | None
Cn1c(=O)c2c(ncn2C)n(C)c1=O [1,3,7-trimethyl xanthine (caffeine), 1,3,7-trimethyl xanthine] | 1 | 0 | 0 | 0 | 2 | 0 | 0 | 2 | 1 | 0 | 3 | 2 |  | Green | Green | None | Red | Red | Red-
